Where two headings read alike, the source gives them in different places. Non-standard residues stand in square brackets, D forms with d. Residues, ends and D or L forms follow the SMILES beside them. ξ: configuration not given here. *: point of attachment. ξF = NC(Cc1ccccc1)C(=O)O; Cbz = O=C(OCc1ccccc1)*; CF3 = FC(F)(F)*
Experiments:
[1] = target: T1, SARS-CoV-2 3CLpro (Severe acute respiratory syndrome coronavirus 2, UniProt P0DTD1); conditions: SARS-CoV pIC50 multiplied by similarity index (SI), training set compounds
[2] = system: SARS-CoV 3CLpro; format: biochemical; conditions: activity class by pIC50 threshold 6
[3] = system: SARS-CoV 3CLpro; conditions: SARS-CoV 3CLpro inhibitors (training set), ref: per compound, cited from earlier work; for pIC50: from literature IC50; for IC50: literature values
[4] = target: T1, SARS-CoV-2 3CLpro; assay: SARS-CoV-2 3CLpro inhibition assay (fluorogenic substrate Dabcyl-[…]-Edans); format: biochemical
[5] = target: T1, SARS-CoV-2 3CLpro; assay: Surface plasmon resonance analysis (Biacore T200); format: binding
[6] = ref TCMSP database, cited from earlier work; for HBA: number of hydrogen-bond acceptors; for HBD: number of hydrogen-bond donors; for OB (%): oral bioavailability
[7] = SARS-CoV-2 3CLpro in vitro dose–response inhibition, read-out: IC50
[8] = SPR, 25 °C, 3CLpro-his captured on CM7 chip, read-out: KD

Row | Compound | SI*pIC50 [1] | Inact.(<6)/Act.(>=6) [2] | pIC50 [3] | IC50 [3] [µM] | other results
1 | O=C(Oc1cncc(Cl)c1)c1cc2ccccc2oc1=O [CMP162] | 7.11 | Act. (Act.(>=6)) | 6.959 | 0.11 | 
2 | O=C(Oc1cncc(Cl)c1)c1cscn1 [CMP166] | 6.72 | Act. (Act.(>=6)) | 6.569 | 0.27 | 
3 | O=C(Oc1cncc(Cl)c1)c1cccc2ccccc12 [CMP168] | 7.073 | Act. (Act.(>=6)) | 6.921 | 0.12 | 
4 | O=C(Oc1cncc(Cl)c1)c1cc2ccccc2o1 [CMP169] | 6.921 | Act. (Act.(>=6)) | 6.77 | 0.17 | 
5 | O=C(Oc1cncc(Cl)c1)c1cc2ccccc2[nH]1 [CMP170] | 7.307 | Act. (Act.(>=6)) | 7.1549 | 0.07 | 
6 | CC(C)c1cc2c(cc1O)[C@@]1(C)CCC[C@@](C)(CO)[C@@H]1CC2 [CMP173] | 3.808 | Inact. (Inact.(<6)) | 3.656 | 221 | 
7 | CC(C)C[C@H](NC(=O)[C@@H](NC(=O)[C@H](C)NC(=O)OCc1ccccc1)C(C)C)C(=O)NC(Cc1ccccc1)C(=O)C(F)(F)F (stereo partly drawn) [CMP174] (Cbz-AVL[ξF]-CF3) | 5.152 | Inact. (Inact.(<6)) | 5 | 10 | 
8 | O=C1C(=O)N(Cc2ccccc2)c2ccc(S(=O)(=O)N3CCCCC3)cc21 [CMP176] | 5.006 | Inact. (Inact.(<6)) | 4.854 | 14 | 
9 | CSc1[nH]nc(NC(=O)c2cccs2)c1S(=O)(=O)c1ccccc1 [CMP177] | 4.976 | Inact. (Inact.(<6)) | 4.824 | 15 | 
10 | O=C(Cc1nccs1)c1nccs1 [CMP178] | 4.55 | Inact. (Inact.(<6)) | 4.398 | 40 | 
11 | CCOC(=O)/C=C/[C@H](C[C@@H]1CCNC1=O)NC(=O)[C@H](CC(C)C)NC(=O)[C@@H](NC(=O)[C@H](CO)NC(=O)OC(C)(C)C)C(C)C [CMP179] | 5.152 | Inact. (Inact.(<6)) | 5 | 10 | 
12 | CCOC(=O)/C=C/[C@H](C[C@@H]1CCNC1=O)NC(=O)[C@H](Cc1ccccc1)NC(=O)[C@@H](NC(=O)[C@H](CO)NC(=O)OC(C)(C)C)C(C)C [CMP180] | 4.976 | Inact. (Inact.(<6)) | 4.824 | 15 | 
13 | O=C(Cc1cncc(Cl)c1)c1cccs1 [CMP181] | 6.453 | Act. (Act.(>=6)) | 6.301 | 0.5 | 
14 | CC(C)c1ccc(N(C(=O)c2ccco2)C(C(=O)NC(C)(C)C)c2cccnc2)cc1 (stereo not drawn) [CMP182] | 4.7028 | Inact. (Inact.(<6)) | 4.551 | 28.1 | 
15 | CC(C)C[C@H](NC(=O)[C@@H](NC(=O)OCc1ccccc1)C(C)C)C(=O)N[C@@H](C[C@@H]1CCNC1=O)C(=O)c1nccs1 [CMP183] | 5.174 | Inact. (Inact.(<6)) | 5.022 | 9.5 | 
16 | O=c1cc(-c2ccc(O)cc2)oc2c([C@@H]3O[C@H](CO)[C@@H](O)[C@H](O)[C@H]3O)c(O)c([C@@H]3OC[C@H](O)[C@H](O)[C@H]3O)c(O)c12 [Isoschaftoside, isoschaftoside] |  |  |  |  | IC50 [4]: 30.2 µM; Kd [5]: 11.4 µM
17 | O=c1c(O[C@@H]2O[C@H](CO[C@@H]3O[C@H](CO)[C@@H](O)[C@H](O)[C@H]3O)[C@@H](O)[C@H](O)[C@H]2O)c(-c2ccc(O)cc2)oc2cc(O)cc(O)c12 [Kaempferol-3-O-gentiobioside, kaempferol-3-O-gentiobioside] |  |  |  |  | IC50 [4, 7]: 35.9 µM; Kd [5, 8]: 2.69 µM
18 | OC[C@@H](O)[C@@H](O)[C@H](O)[C@H](O)CO [MOL000003, MTL] |  |  |  |  | HBA [6]: 6; HBD [6]: 6; OB (%) [6]: 17.73%; BBB [6]: -4.07; Caco-2 [6]: -1.58; FASA- [6]: 0.18; NRotB [6]: 5
19 | O=c1cc(-c2ccc(O)c(O)c2)oc2cc(O)cc(O)c12 [MOL000006, luteolin] |  |  |  |  | HBA [6]: 6; HBD [6]: 4; OB (%) [6]: 36.16%; BBB [6]: -0.84; Caco-2 [6]: 0.19; FASA- [6]: 0.39; HL [6]: 15.94; NRotB [6]: 1

Row | Compound | SI*pIC50 [1] | Inact.(<6)/Act.(>=6) [2] | pIC50 [3] | IC50 [3] [µM] | other results
20 | O=c1cc(-c2ccc(O)cc2)oc2cc(O[C@@H]3O[C@H](CO)[C@@H](O)[C@H](O)[C@H]3O)cc(O)c12 [MOL000007, Cosmetin] |  |  |  |  | HBA [6]: 10; HBD [6]: 6; OB (%) [6]: 9.68%; BBB [6]: -2.26; Caco-2 [6]: -1.08; FASA- [6]: 0.32; NRotB [6]: 4
21 | O=c1cc(-c2ccc(O)cc2)oc2cc(O)cc(O)c12 [MOL000008, apigenin] |  |  |  |  | HBA [6]: 5; HBD [6]: 3; OB (%) [6]: 23.06%; BBB [6]: -0.61; Caco-2 [6]: 0.43; FASA- [6]: 0.41; NRotB [6]: 1
22 | O=c1c(O)c(-c2ccc(O)cc2)oc2cc(O)cc(O)c12 [MOL000422] |  |  |  |  | Kd [5, 8]: 24.6 µM
23 | O=C(/C=C/c1ccc(O)c(O)c1)O[C@H]1[C@H](O)C[C@](O)(C(=O)O)C[C@H]1OC(=O)/C=C/c1ccc(O)c(O)c1 [MOL001878] |  |  |  |  | Kd [5, 8]: 0.047 µM
24 | Cc1cc(O)c2c(=O)c3c(O)cc(O)c4c5c(O)cc(O)c6c(=O)c7c(O)cc(C)c8c1c2c(c34)c(c78)c65 [MOL002067] |  |  |  |  | Kd [5]: 19.9 µM
25 | C[C@@H]1O[C@@H](OC[C@H]2O[C@@H](Oc3c(-c4ccc(O)cc4)oc4cc(O)cc(O)c4c3=O)[C@H](O)[C@@H](O)[C@@H]2O)[C@H](O)[C@H](O)[C@H]1O [MOL002693] |  |  |  |  | Kd [5]: 3.63 µM
26 | O=c1c(O[C@@H]2O[C@H](CO)[C@@H](O)[C@H](O)[C@H]2O[C@@H]2O[C@H](CO)[C@@H](O)[C@H](O)[C@H]2O)c(-c2ccc(O)cc2)oc2cc(O)cc(O)c12 [MOL002761] |  |  |  |  | Kd [5, 8]: 12.5 µM
27 | C[C@@H]1O[C@@H](O[C@H]2[C@H](O[C@H]3CC[C@@]4(C)[C@@H](CC[C@]5(C)[C@H]4CC=C4[C@H]6CC(C)(C)CC[C@]6(C(=O)O[C@@H]6O[C@H](CO[C@@H]7O[C@H](CO)[C@@H](O)[C@H](O)[C@H]7O)[C@@H](O)[C@H](O)[C@H]6O)CC[C@]45C)[C@]3(C)CO)OC[C@H](O)[C@@H]2O)[C@H](O)[C@H](O)[C@H]1O [MOL003034] |  |  |  |  | Kd [5]: 10.9 µM
28 | C[C@@H]1O[C@@H](OC[C@H]2O[C@@H](OCCc3ccc(O)c(O)c3)[C@H](O)[C@@H](O)[C@@H]2OC(=O)/C=C/c2ccc(O)c(O)c2)[C@H](O)[C@H](O)[C@H]1O [MOL003331] |  |  |  |  | Kd [5]: 1.21 µM
29 | C[C@@H]1O[C@@H](O[C@@H]2[C@@H](O)[C@H](OCCc3ccc(O)c(O)c3)O[C@H](CO)[C@H]2OC(=O)/C=C/c2ccc(O)c(O)c2)[C@H](O)[C@H](O)[C@H]1O [MOL003333] |  |  |  |  | Kd [5]: 0.409 µM
30 | O=c1c(O[C@@H]2O[C@H](CO)[C@H](O)[C@H](O)[C@H]2O)c(-c2ccc(O)c(O)c2)oc2cc(O)cc(O)c12 [MOL004368] |  |  |  |  | Kd [5, 8]: 9.98 µM
31 | C[C@@H](CC[C@]1(O)O[C@H]2C[C@H]3[C@@H]4CC[C@@H]5C[C@@H](O[C@@H]6O[C@H](CO)[C@H](O)[C@H](O)[C@H]6O[C@@H]6O[C@H](CO)[C@@H](O)[C@H](O)[C@H]6O)CC[C@]5(C)[C@H]4CC[C@]3(C)[C@H]2[C@@H]1C)CO[C@@H]1O[C@H](CO)[C@@H](O)[C@H](O)[C@H]1O [MOL004515] |  |  |  |  | Kd [5]: 7.2 µM
32 | O=C(/C=C/c1ccc(O)c2c1[C@H](C(=O)O[C@H](Cc1ccc(O)c(O)c1)C(=O)O)[C@@H](c1ccc(O)c(O)c1)O2)O[C@H](Cc1ccc(O)c(O)c1)C(=O)O [MOL007060] |  |  |  |  | Kd [5]: 64 µM
33 | O=C(/C=C/c1ccc(O)c2c1[C@H](C(=O)O)[C@@H](c1ccc(O)c(O)c1)O2)O[C@H](Cc1ccc(O)c(O)c1)C(=O)O [MOL007113] |  |  |  |  | Kd [5]: 15 µM
34 | COc1cc(-c2oc3cc(O)cc(O)c3c(=O)c2O[C@@H]2O[C@H](CO)[C@@H](O)[C@H](O)[C@H]2O)ccc1O [MOL007260] |  |  |  |  | Kd [5, 8]: 9.45 µM
35 | O=C(/C=C/c1ccc(O)c(O)c1)O[C@@H]1C[C@@](OC(=O)/C=C/c2ccc(O)c(O)c2)(C(=O)O)C[C@@H](O)[C@@H]1O [MOL007326] |  |  |  |  | Kd [5, 8]: 20.3 µM
36 | COc1cc(-c2oc3cc(O)cc(O)c3c(=O)c2O[C@@H]2O[C@H](CO[C@@H]3O[C@@H](C)[C@H](O)[C@@H](O)[C@H]3O)[C@@H](O)[C@H](O)[C@H]2O)ccc1O [Narcissoside, narcissoside] |  |  |  |  | IC50 [4, 7]: 38.1 µM; Kd [5, 8]: 10 µM
37 | O=c1cc(-c2ccc(O)cc2)oc2c([C@@H]3O[C@H](CO)[C@@H](O)[C@H](O)[C@H]3O)c(O)c([C@@H]3O[C@H](CO)[C@@H](O)[C@H](O)[C@H]3O)c(O)c12 [Vicenin-2, vicenin-2] |  |  |  |  | IC50 [4]: 38.9 µM; Kd [5]: 8.58 µM
38 | cyanidol [MOL000002] |  |  |  |  | HBA [6]: 6; HBD [6]: 5; OB (%) [6]: 1.36%; BBB [6]: -0.51; FASA- [6]: 0.34; NRotB [6]: 1

— publication PMC8611036, “An integrated method for optimized identification of effective natural inhibitors against SARS-CoV-2 3CLpro” (Scientific Reports, 2021)
